Data on 7 compounds can be found in PubChem BioAssay AID1963986 (Molecular Pharmacology Branch, DTP, NCI, 2024).

Structures are written as SMILES. pIC50: −log10 of the molar value. Where “and” joins values, the source holds several entries; their conditions need not be identical. Identical values can stand only once. A value given as a limit tells only on which side of the number the result lay.

For the assay, the system named is 171881-019-R-J1-PDC tumor spheroid viability. The experiment in a line: Anticancer human tumor 171881-019-R-J1-PDC patient-derived invasive breast carcinoma cell line growth inhibition [PI3K]. The note with it: spheroids with HUVEC and MSC; for viability, T/C: stronger effect = lower value; for IC50 / pIC50: curve of compound. The text has this: Combinatorial screen of targeted agents with the PI3K inhibitors inavolisib, alpelisib, duvelisib, and copanlisib in multi-cell type tumor spheroids
A high-throughput screen of multi-cell type tumor spheroids was designed to identify active combinations of targeted small molecules and PI3K pathway inhibitors. Complex spheroids include a stromal component modeled by human endothelial cells (HUVEC) and fibroblasts modeled by human mesenchymal stem cells (MSCs). The concentration ranges selected for each drug and investigational agent were based upon clinically achievable concentrations if the clinical Cmax of the agent was known.
Compounds. The drugs and investigational agents: inavolisib (NSC800729), alpelisib (NSC765974), duvelisib (NSC772469), copanlisib (NSC816437), ipatasertib (NSC767898), afuresertib (NSC778305), talazoparib (NSC767125), sapanisertib (NSC764658), selumetinib (NSC741078), tovorafenib (DAY101, NSC766906), vemurafenib (NSC761431), ravoxertinib (NSC781343), sotorasib (NSC818433), MRTX1133 (NSC 836407), abemaciclib (NSC 768073), palbociclib (NSC758247), venetoclax (NSC 766270), SY5609 (NSC837396), enzalutamide (NSC755605), and darolutamide (NSC825331), were obtained from the National Cancer Institute (NCI) Developmental Therapeutics Program Chemical Repository. The FDA-approved anticancer drug set is available from the NCI Developmental Therapeutics Program. […] The stock solutions were prepared in dimethyl sulfoxide (DMSO, Sigma-Aldrich, St. Louis, MO, cat. D2650) at 800-fold the tested concentration and stored at -70 degrees C prior to their use. All drugs and investigational agents were tested over a range starting from a high concentration at or near the clinical Cmax and decreasing in half-log increments. If the clinical Cmax for an agent had not been determined, the highest concentration tested was 10 microM.
Cell Culture. All cells were maintained in an incubator at 37 degrees C and 5% CO2 with 95% humidity. The PDC lines were cultured according to standard operating procedures established by the NCI PDMR (https://pdmr.cancer.gov/sops/default.htm). All PDCs were thawed and cultured in Matrigel-coated flasks prepared with a working solution of 1X Ham's F-12 nutrient mix, without supplementation (Invitrogen, Waltham, MA, cat. 11765054), 100 U/mL penicillin-streptomycin (Invitrogen, cat. 15140122), and 2.5% Matrigel (Corning Inc., Corning, NY, cat. 354248) for the first three passages. The 354836-022-R-J1-PDC, 475296-252-R-J1-PDC, and 997726-040-R-J2-PDC lines were cultured in 6A media, which includes advanced DMEM/F-12 (Thermo Fisher Scientific, cat. 12634028), 10 mM HEPES (Thermo Fisher Scientific, cat. 15630080), 1X GlutaMAX supplement (Thermo Fisher Scientific, cat. 35050061), 0.1 mg/mL primocin (InvivoGen, San Diego, CA, cat. ant-pm-2), 10% defined fetal bovine serum, heat inactivated (HyClone Laboratories Inc., Logan, UT, cat. SH30070.03HI), 50% L-WRN conditioned media (ATCC, cat. CRL-3276), 1.25 mM N-Acetyl-L-cysteine (Sigma-Aldrich, cat. A9165), 10 mM nicotinamide (Sigma-Aldrich, cat. N0636), 1X B-27 supplement (Thermo Fisher Scientific, cat. 17504044), 1X N-2 supplement (Thermo Fisher Scientific, cat. 17502048), and 10 microM Y-27632 dihydrochloride (Tocris Bioscience, Bristol, United Kingdom, cat. 1254). The 624824-186-R-J2-PDC line was cultured in 6C/Colon 1B media, which includes all 6A media components plus 50 ng/mL human EGF recombinant protein (Thermo Fisher Scientific, cat. PHG0311). […]
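Also: spheroids exposed to compound for 7 days before viability read.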

Broadly, the viability, T/C is the ratio of treated to control. In general, IC50 refers to the concentration that inhibits the measured activity by half. For `C#Cc1c(F)ccc2cc(O)cc(-c3ncc4c(N5CC6CCC(C5)N6)nc(OCC56CCCN5CC(F)C6)nc4c3F)c12` (stereo not drawn), the IC50 was 425 nM [middle of 4 runs]. Moreover, the viability, T/C (compound 0.0316 µM) was 86.7% [middle of 4 runs]. For the same compound, the viability, T/C (compound 0.1 µM) is 70.6% [middle of 4 runs]. Also, the viability, T/C (compound 0.316 µM) is 53.7% [middle of 4 runs]. Besides, the viability, T/C (compound 1 µM) was 40.4% [middle of 4 runs]. Besides, the viability, T/C (compound 3.16 µM) was 35.4% [middle of 4 runs]. For the same compound, where the note is “compound 10 µM”, the viability, T/C was 27.9% [middle of 4 runs].

One may read the pIC50 as the negative decadic logarithm of the IC50, by convention in mol/L. Regarding `C=CC(=O)N1CCN(c2nc(=O)n(-c3c(C)ccnc3C(C)C)c3nc(-c4c(O)cccc4F)c(F)cc23)C(C)C1` (stereo not drawn), the negative logarithm of the IC50 (pIC50) is less than 5.00. Besides, for the setting “compound 0.0316 µM”, the viability, T/C was 95.3% [middle of 4 runs]. Also, the viability, T/C (compound 0.1 µM) was 84.4% [middle of 4 runs]. In addition, for the setting “compound 0.316 µM”, the viability, T/C was 92.5% [middle of 4 runs]. The viability, T/C (compound 1 µM) was 94.6% [middle of 4 runs]. The viability, T/C (compound 3.16 µM) was 91.7% [middle of 4 runs]. In addition, the viability, T/C (compound 10 µM) is 56.1% [middle of 4 runs].

In the case of `CC(Cn1ccc(-c2ccc(C#N)c(Cl)c2)n1)NC(=O)c1cc(C(C)O)[nH]n1` (stereo not drawn), the pIC50 was less than 5.00. Further, the viability, T/C (compound 0.0316 µM) is 95.5% [middle of 4 runs]. The viability, T/C (compound 0.1 µM) is 91.1% [middle of 4 runs]. In addition, where the note is “compound 0.316 µM”, the viability, T/C is 92.4% [middle of 4 runs]. Further, the viability, T/C (compound 1 µM) is 93.4% [middle of 4 runs]. In addition, where the note is “compound 3.16 µM”, the viability, T/C is 87.9% [middle of 4 runs]. Moreover, where the note is “compound 10 µM”, the viability, T/C was 64.3% [middle of 4 runs].

For the compound `CC1(C)CCC(Nc2ncc(C(F)(F)F)c(-c3c[nH]c4c(P(C)(C)=O)c(C#N)ccc34)n2)CN1` (stereo not drawn), the IC50 is 5.87 µM [middle of 4 runs]. Also, the viability, T/C (compound 0.0316 µM) was 72.4% [middle of 4 runs]. The viability, T/C (compound 0.1 µM) is 70.7% [middle of 4 runs]. Also, under “compound 0.316 µM”, the viability, T/C was 78.8% [middle of 4 runs]. Where the note is “compound 1 µM”, the viability, T/C is 82.7% [middle of 4 runs]. The viability, T/C (compound 3.16 µM) was 86.8% [middle of 4 runs]. The viability, T/C (compound 10 µM) is 24% [middle of 4 runs].

In the case of `CNC(=O)c1ccc(N2C(=S)N(c3ccc(C#N)c(C(F)(F)F)c3)C(=O)C2(C)C)cc1F`, the pIC50 was less than 5.00. Where the note is “compound 0.0316 µM”, the viability, T/C is 96.3% [middle of 4 runs]. Besides, the viability, T/C (compound 0.1 µM) was 87.5% [middle of 4 runs]. Besides, where the note is “compound 1 µM”, the viability, T/C was 90.5% [middle of 4 runs]. In addition, the viability, T/C (compound 3.16 µM) is 82.8% [middle of 4 runs]. The viability, T/C (compound 10 µM) is 72% [middle of 4 runs].

Regarding `Cn1ncc(Cl)c1-c1cc(C(=O)NC(CN)Cc2cccc(F)c2)sc1Cl` (stereo not drawn), the pIC50 was 6.92 and 6.90 and 6.81. Moreover, the viability, T/C (compound 0.0316 µM) is 80.2% [middle of 4 runs]. In addition, for the setting “compound 0.1 µM”, the viability, T/C is 55.6% [middle of 4 runs]. For the same compound, the viability, T/C (compound 0.316 µM) was 34% [middle of 4 runs]. The viability, T/C (compound 1 µM) was 21.5% [middle of 4 runs]. Further, the viability, T/C (compound 3.16 µM) was 13.1% [middle of 4 runs]. In addition, the viability, T/C (compound 10 µM) was 4.48% [middle of 4 runs].

Take `Cn1nccc1Nc1nccc(-c2ccn(C(CO)c3ccc(Cl)c(F)c3)c(=O)c2)n1` (stereo not drawn): the concentration for half-maximal inhibition (IC50) is 502 nM [middle of 4 runs]. Besides, the viability, T/C (compound 0.0316 µM) was 93.8% [middle of 4 runs]. Further, the viability, T/C (compound 0.1 µM) was 84.3% [middle of 4 runs]. Also, where the note is “compound 0.316 µM”, the viability, T/C was 57.5% [middle of 4 runs]. The viability, T/C (compound 1 µM) was 37.7% [middle of 4 runs]. For the same compound, the viability, T/C (compound 3.16 µM) was 26.1% [middle of 4 runs]. For the setting “compound 10 µM”, the viability, T/C was 20.1% and 21.8% and 21.4% (2×).
